In ChEMBL document CHEMBL1137988, “Design and synthesis of a nitrogen mustard derivative stabilized by apo-neocarzinostatin” (J Med Chem, 2004):

What was measured:
[1] = Dissociation binding constant was determined for apoNCS binding site using fluorescence quenching titration assay
K562 = assay: Cytotoxicity against human leukemia cell line K562; format: functional, cell-based
[2] = Dissociation binding constant was determined for apoNCS binding site using fluorescence quenching titration assay; Insufficient change in fluorescence

Question: With `COc1cc(C)c2ccc(O)c(C(=O)OCCOC(=O)C(N)Cc3ccc(N(CCCl)CCCl)cc3)c2c1` (configuration not stated) as the compound, how does the Kd [1] read?
Answer: 47 µM

Question: And the IC50 (K562)?
Answer: 7 µM

Question: Which Kd [1] does the source give for `COc1cc(C)c2ccc(O)c(C(=O)OCCOC(=O)CCCc3ccc(N(CCCl)CCCl)cc3)c2c1` here?
Answer: > 1000 µM

Question: And the IC50 (K562)?
Answer: 200 µM

Question: For `O=C(O)CCCc1ccc(N(CCCl)CCCl)cc1` [CHLORAMBUCIL], which IC50 (K562) is on record?
Answer: 95 µM

Question: For `N[C@@H](Cc1ccc(N(CCCl)CCCl)cc1)C(=O)O` [MELPHALAN], which Kd [2] is on record?
Answer: Insufficient change in fluorescence

Question: And the IC50 (K562)?
Answer: 30 µM
